Data from article PMC5578999, “Novel quinolone chalcones targeting colchicine-binding pocket kill multidrug-resistant cancer cells by inhibiting tubulin activity and MRP1 function” (Scientific Reports, 2017).
pIC50: −log10 of the molar value.

Experiments:
PC-3 = assay: NCI-60 SRB screen; assay type: cell-based
NCI-H322M = assay: NCI-60 SRB screen; assay type: cell-based
MALME-3M = assay: NCI-60 SRB screen; assay type: cell-based
NCI-60 cancer cell lines = assay: NCI-60 SRB screen, panel means; assay type: cell-based; conditions: mean of panel
Source text: Supplementary Table S 3: Antitumor activity of CTR -17 and CTR -20, alone or in combination […]
a Tax: paclitaxel. b mg per kg of bod y wei ght. c unit is mm 3.
Supplementary Figure l egend
10μ M of CTR-20 was used to examine the drug’s efficac y against the NC I-60 cancer cell li nes including: six leukemia cell lines, nine non- small cell lung cancer cell lines, seven color ect al cancer cell lines, six CNS cancer cell lines, nine melanoma cell lines, seven ovari an can cer cell lines, seven ren al can cer cell lines, two prostate cancer cell lines and six breast cancer cell lines. The scr eenin g was car r ied out b y the US National Cancer Institute (NC I) us i n g a sulforhodamine B (SRB) colorimetric assay. […]
out by the NC I using five different doses of CTR -20.

[1] = target: tubulin, colchicine-binding pocket; assay: Competitive colchicine-tubulin binding assay (modified Dixon plot); conditions: competitive with colchicine
Protocol: To determine the mode of binding, a competitive binding assay was carried out as described previously. Briefly, tubulin (0.4 μmol/L) was incubated with different concentrations of CTR for 1 hour at 37 °C. Subsequently, colchicine was added to the reaction mixture containing CTR-tubulin complexes. […] Fluorescence was monitored using an automated plate reader (Synergy H4 Hybrid Multi-Mode Micro plate Reader) with an excitation wavelength at 360 nm and emission at 430 nm. […] The experiment was repeated four times.

MRP1 [2] = target: T1, MRP1 (Homo sapiens, UniProt P33527); assay: Rh123 dye efflux assay, HEK293-MRP1 cells; assay type: cell-based; conditions: 22 µmol/L of drug, DMSO control 39.6%
T1 construct: expressed in transfected cells; host or cells: HEK293-MRP1 (gift of Dr. Susan Cole)
Protocol: Rhodamine123 (Rh123) drug efflux was carried out using a Multidrug-Resistance Direct Dye Efflux Activity Kit (Millipore, Darmstadt, Germany), with some modifications. […] Reading was carried out with a Beckman Coulter FC500 flow cytometer.

MRP1 [3] = target: T1, MRP1; assay: Calcein-AM retention assay, HEK293-MRP1 cells; assay type: cell-based; conditions: 22 µmol/L, DMSO control 52%
U87MG = assay: SRB cell viability/proliferation; assay type: cell-based; conditions: Homo sapiens, U-87 MG
Protocol: (§1) and MCF10AT1 cells were cultured in Dulbecco's Modified Eagle's Medium/Ham's Nutrient Mixture F-12 (DME/F12) supplemented with 10% (volume/volume) FBS , 100 μg/ml streptom ycin and 100 units/ml penicillin, antim ycotic solution, 0.5 μg/ml hydrocortisone, 10 ng/ml human epiderm al growth factor (hEGF) and 5 μg/ml insulin, whereas MCF10CA1a cell line was cultured in DM EM supplemented with 10% FBS (volume/volume). KB-3- 1, parental human epidermoid carcinoma cell line and KB-C2, an isogenic MDR1- overexpressing drug-resistant cell line, were kindl y provided b y Dr. Amit K Tiwari, the Universit y of Toledo, OH.
(§2) Parental HEK293 and M RP1- overexpressing HEK293- MRP1 isogenic cel ls were kind gifts of Dr. Susan Cole (Queen’s Universit y, Kingston, Ontario, Canada). The pacl itaxel-resistant MDA-MB-231TaxR cell line was generated in house b y culturing MDA-MB-231 cells (purchased from ATCC and authen ticated ) in the gradual l y incr easi ng con centr ations of pacl itax el until the concentration reached to 100 nM. Cell line authentication was carried out by Genetica DNA Laboratories (Burlington, NC) using a short tandem repeat (STR) profiling method (March 2015; […]
(§3) Cell cycl e pro gr ession in the absence (sham) o r pr esence o f compound(s ) was determined with a Beckman Coulter Epics Elite FC 500 Flow C ytom eter as described previousl y (Romero

MDA-MB-468 = assay: SRB cell viability/proliferation; assay type: cell-based; conditions: Homo sapiens
Protocol: as §1, §2, §3

[4] = Homo sapiens, read-out: LC50 (the source's name)

T1 sequence (P33527 whole entry): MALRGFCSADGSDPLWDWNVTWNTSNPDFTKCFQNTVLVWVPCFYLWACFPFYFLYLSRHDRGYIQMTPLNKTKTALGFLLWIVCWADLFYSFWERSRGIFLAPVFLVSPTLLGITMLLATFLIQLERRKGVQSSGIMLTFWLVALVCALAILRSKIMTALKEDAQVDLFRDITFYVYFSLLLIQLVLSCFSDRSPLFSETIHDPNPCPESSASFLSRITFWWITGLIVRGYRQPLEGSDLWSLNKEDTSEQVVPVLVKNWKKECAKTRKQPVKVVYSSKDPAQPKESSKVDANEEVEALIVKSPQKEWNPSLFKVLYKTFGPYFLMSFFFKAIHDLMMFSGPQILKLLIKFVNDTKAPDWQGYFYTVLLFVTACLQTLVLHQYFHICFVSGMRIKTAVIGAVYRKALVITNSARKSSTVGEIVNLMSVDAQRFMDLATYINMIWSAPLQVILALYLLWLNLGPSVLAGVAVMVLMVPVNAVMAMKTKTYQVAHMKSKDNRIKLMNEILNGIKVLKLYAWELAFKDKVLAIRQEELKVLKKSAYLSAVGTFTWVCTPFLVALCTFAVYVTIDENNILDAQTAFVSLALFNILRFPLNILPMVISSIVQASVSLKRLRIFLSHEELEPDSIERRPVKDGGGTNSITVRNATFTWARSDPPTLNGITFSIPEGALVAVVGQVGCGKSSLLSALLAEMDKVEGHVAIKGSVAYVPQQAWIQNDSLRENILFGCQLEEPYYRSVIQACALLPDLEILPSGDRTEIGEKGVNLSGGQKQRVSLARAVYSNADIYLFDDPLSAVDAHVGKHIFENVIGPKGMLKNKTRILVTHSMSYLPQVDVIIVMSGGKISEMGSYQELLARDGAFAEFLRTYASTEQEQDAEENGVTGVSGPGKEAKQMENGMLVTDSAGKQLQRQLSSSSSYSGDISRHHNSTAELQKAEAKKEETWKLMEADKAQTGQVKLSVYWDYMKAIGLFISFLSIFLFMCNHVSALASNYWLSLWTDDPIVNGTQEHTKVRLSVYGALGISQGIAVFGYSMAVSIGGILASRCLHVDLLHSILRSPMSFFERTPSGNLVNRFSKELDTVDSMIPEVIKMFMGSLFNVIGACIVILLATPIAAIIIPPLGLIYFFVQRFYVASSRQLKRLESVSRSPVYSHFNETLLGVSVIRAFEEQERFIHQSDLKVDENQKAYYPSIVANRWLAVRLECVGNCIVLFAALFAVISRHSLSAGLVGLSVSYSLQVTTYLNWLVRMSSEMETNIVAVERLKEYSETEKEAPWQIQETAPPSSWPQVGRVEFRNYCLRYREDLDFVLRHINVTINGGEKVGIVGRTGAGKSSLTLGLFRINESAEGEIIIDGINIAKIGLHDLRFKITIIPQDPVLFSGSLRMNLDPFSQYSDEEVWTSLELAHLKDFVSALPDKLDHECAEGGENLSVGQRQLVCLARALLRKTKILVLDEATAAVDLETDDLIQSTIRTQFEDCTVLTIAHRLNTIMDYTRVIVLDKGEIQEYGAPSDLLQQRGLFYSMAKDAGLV

Structure (SMILES): COc1ccc2[nH]c(=O)c(/C=C/C(=O)c3ccccc3OC)cc2c1 [CTR-20, (E)-6-Methoxy-3-(3-(2-methoxyphenyl)-3-oxoprop-1-enyl) quinolin-2(1H)-one]
- Log10GI50 (PC-3): -6.07 Molar
- Log10LC50 (PC-3): -4.59 Molar
- Log10TGI (PC-3): -5.43 Molar
- TGI (PC-3): 3.75E-6 Molar
- Growth Percent (PC-3; 1.00E-5 Molar): 22.06%
- GI50 (PC-3; Homo sapiens): 842 nM
- CC50 (PC-3; [4]): 25900 nM
- Percent Growth (PC-3; Log10 Concentration -4.0): -73%
- Percent Growth (PC-3; Log10 Concentration -5.0): -34%
- Percent Growth (PC-3; Log10 Concentration -6.0): 46%
- Percent Growth (PC-3; Log10 Concentration -7.0): 102%
- Percent Growth (PC-3; Log10 Concentration -8.0): 104%
- Log10GI50 (NCI-H322M): -5.62 Molar
- Log10LC50 (NCI-H322M): -4.48 Molar
- Log10TGI (NCI-H322M): -4.98 Molar
- TGI (NCI-H322M): 1.04E-5 Molar
- Growth Percent (NCI-H322M; 1.00E-5 Molar): 18.31%
- GI50 (NCI-H322M; Homo sapiens): 2400 nM
- CC50 (NCI-H322M; [4]): 33500 nM
- Percent Growth (NCI-H322M; Log10 Concentration -4.0): -97%
- Percent Growth (NCI-H322M; Log10 Concentration -5.0): 2%
- Percent Growth (NCI-H322M; Log10 Concentration -6.0): 80%
- Percent Growth (NCI-H322M; Log10 Concentration -7.0): 93%
- Percent Growth (NCI-H322M; Log10 Concentration -8.0): 94%
- GI50 (MALME-3M; Homo sapiens, Malme-3M): 766 nM
- CC50 (MALME-3M; Homo sapiens, Malme-3M, read-out: LC50 (the source's name)): 30300 nM
- Log10GI50 (MALME-3M; MALME-3M): -6.12 Molar
- Log10LC50 (MALME-3M; MALME-3M): -4.52 Molar
- Log10TGI (MALME-3M; MALME-3M): -5.09 Molar
- TGI (MALME-3M; MALME-3M): 8.09E-6 Molar
- Growth Percent (MALME-3M; MALME-3M, 1.00E-5 Molar): 38.55%
- Percent Growth (MALME-3M; MALME-3M, Log10 Concentration -4.0): -99%
- Percent Growth (MALME-3M; MALME-3M, Log10 Concentration -5.0): -5%
- Percent Growth (MALME-3M; MALME-3M, Log10 Concentration -6.0): 46%
- Percent Growth (MALME-3M; MALME-3M, Log10 Concentration -7.0): 81%
- Percent Growth (MALME-3M; MALME-3M, Log10 Concentration -8.0): 92%
- Mean Growth Percent (NCI-60 cancer cell lines; 1.00E-5 Molar): 13.21%
- Log10GI50 _MID (NCI-60 cancer cell lines): -6.21 Molar
- Log10LC50 _MID (NCI-60 cancer cell lines): -4.58 Molar
- Log10TGI _MID (NCI-60 cancer cell lines): -5.29 Molar
- binding to the colchicine-binding pocket by Ki values, relative to CTR-17 [1]: approximately five times more strongly
- Rh123 retention (MRP1 [2]): 81.7%
- calcein-AM retained in the cells (MRP1 [3]): 72%
- pIC50 (U87MG): 5.95
- pIC50 (MDA-MB-468): 6.92
